Assay results: article PMC7253177, “Gain of channel function and modified gating properties in TRPM3 mutants causing intellectual disability and epilepsy” (eLife, 2020)

Target: T1, TRPM3 P1090Q mutant (Homo sapiens, UniProt Q9HCF6, P1115Q)
T1 sequence (Q9HCF6 1-1325 isoform Q9HCF6-10 P1090Q): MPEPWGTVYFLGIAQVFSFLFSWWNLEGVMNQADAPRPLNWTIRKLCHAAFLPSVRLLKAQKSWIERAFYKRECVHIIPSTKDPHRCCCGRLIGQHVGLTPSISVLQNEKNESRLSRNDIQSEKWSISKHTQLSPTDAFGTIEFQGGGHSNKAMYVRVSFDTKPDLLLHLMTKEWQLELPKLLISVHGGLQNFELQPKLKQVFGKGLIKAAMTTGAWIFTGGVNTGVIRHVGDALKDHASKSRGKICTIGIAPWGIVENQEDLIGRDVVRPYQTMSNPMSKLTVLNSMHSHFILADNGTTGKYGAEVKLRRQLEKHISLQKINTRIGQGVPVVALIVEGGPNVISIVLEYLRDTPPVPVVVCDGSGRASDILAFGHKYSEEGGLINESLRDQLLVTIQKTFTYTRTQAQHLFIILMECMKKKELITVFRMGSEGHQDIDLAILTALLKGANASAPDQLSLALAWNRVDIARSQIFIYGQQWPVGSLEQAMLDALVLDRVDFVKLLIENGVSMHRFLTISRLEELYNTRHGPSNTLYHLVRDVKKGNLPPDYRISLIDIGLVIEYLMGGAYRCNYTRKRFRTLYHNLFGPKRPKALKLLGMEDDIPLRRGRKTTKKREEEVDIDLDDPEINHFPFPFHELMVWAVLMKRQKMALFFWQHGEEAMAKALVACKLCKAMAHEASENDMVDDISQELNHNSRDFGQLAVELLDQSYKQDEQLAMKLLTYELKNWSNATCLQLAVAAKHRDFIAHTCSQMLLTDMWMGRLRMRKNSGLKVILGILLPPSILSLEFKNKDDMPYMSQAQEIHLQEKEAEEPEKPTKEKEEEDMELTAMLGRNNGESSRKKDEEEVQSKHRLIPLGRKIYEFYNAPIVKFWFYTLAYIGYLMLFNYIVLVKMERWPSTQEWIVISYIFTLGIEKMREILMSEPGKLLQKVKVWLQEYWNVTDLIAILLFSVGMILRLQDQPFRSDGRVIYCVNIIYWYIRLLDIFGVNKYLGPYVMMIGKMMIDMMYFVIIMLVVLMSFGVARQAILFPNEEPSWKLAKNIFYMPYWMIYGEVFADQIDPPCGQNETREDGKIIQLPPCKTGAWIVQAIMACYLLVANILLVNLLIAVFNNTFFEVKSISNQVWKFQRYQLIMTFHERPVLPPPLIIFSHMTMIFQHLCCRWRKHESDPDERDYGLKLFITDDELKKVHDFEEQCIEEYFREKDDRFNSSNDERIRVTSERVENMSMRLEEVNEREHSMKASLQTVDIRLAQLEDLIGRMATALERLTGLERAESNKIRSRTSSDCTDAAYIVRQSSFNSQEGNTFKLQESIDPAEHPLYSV
Protocol: HEK293T cells ([Graham et al., 1977]) were cultured as described previously ([Vriens et al., 2007]) and used up in passage number 14. HEK293T cells were tested for the lack of mycoplasma and transiently transfected with 2 µg of DNA using TransIT transfection reagent (Mirus) 36–48 hr before the measurements. In case of co-cultures a ratio of 1:1 between hTRPM3-YFP WT and mutants-YFP DNA was used.
All mutants were obtained by the standard PCR overlap extension method using hTRPM3 directly linked to YFP from pCAGGS/IRES-GFP vector ([Vriens et al., 2007]). Accuracy of all mutant sequences was verified by sequencing of the entire DNA constructs.
Standard whole-cell patch-clamp recordings were performed with an EPC-10 amplifier and the PatchMasterPro Software (HEKA Elektronik, Lambrecht, Germany). Current measurements were performed at a sampling rate of 20 kHz and currents were digitally filtered at 2.9 kHz. In all measurements, 70% of the series resistance was compensated. The standard internal solution contained (in mM): 100 CsAsp, 45 CsCl, 10 EGTA, 10 HEPES, 1 MgCl2 (pH 7.2 with CsOH) or 140 potassium gluconate, 5 EGTA, 1 MgCl2, 10 HEPES and 2 NaATP (pH 7.3 with CsOH) for the measurements of Gβγ mediated inhibition and the standard extracellular solution contained (in mM): 150 NaCl, 1 MgCl2, 10 HEPES (pH 7.4 with NaOH). The standard patch pipette resistance was between 2 MΩ and 4 MΩ when filled with pipette solution. In experiments allowing Ca^2+-dependent desensitization of TRPM3, Mg^2+ was replaced by Ca^2+ in the extracellular solution, and Cs^+ was replaced by Na^+ in the pipette solution. […] The chemical ligands were dissolved in bath solution from a stock diluted in DMSO.

Structure (SMILES)	Activation of whole-cell currents in the absence of PS (Clt 10 µM)	Effect on the response to PS (whole-cell currents) (Clt 10 µM, PS 40 µM)	Inhibition of PS-activated inward and outward currents (primidone 25 µM, PS 40 µM, ±80 mV, cells co-expressing µ-opioid receptor)
Clc1ccccc1C(c1ccccc1)(c1ccccc1)n1ccnc1 [Clt, clotrimazole]	did not activate currents	inhibited the response to PS	–
CCC1(c2ccccc2)C(=O)NCNC1=O [primidone]	–	–	full inhibition
